According to the METLIN SMRT retention time set (Domingo-Almenara et al. 2019):

Assay: gradient 5% acetonitrile 3 min, to 50% in 2 min, to 85% in 15 min, held 3 min, 100 µL/min
Conditions: column: Zorbax Extend-C18 2.1 x 50 mm; eluents: water / acetonitrile, 0.1% formic acid
Procedure, shortened: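 Retention times of pure standards were taken from adduct peaks that were selected by computer and manually inspected. Over 3 months, mixtures of ~100 molecules were run by HPLC–quadrupole time-of-flight mass spectrometry in positive and negative ionization mode. The Zorbax Extend-C18 column (2.1 × 50 mm, 1.8 μm) ran at 100 μL/min in water and acetonitrile, each containing 0.1% formic acid, with 40 μL dead volume and 900 μL dwell volume.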

Compound | RP-LC retention time
Cc1cccc(-n2cc(C(=O)OCc3cccnc3)c3ccccc3c2=O)c1 | 808 s
CCc1ccccc1NS(=O)(=O)c1cc(-c2[nH]ncc2C(=O)N2CCCCC2)oc1C | 799 s
COc1ccc(-c2noc(Cc3nnc(-c4cccc(C)c4)o3)n2)cc1OC | 945 s
O=C(CN1CCN(C(=O)Nc2ccccc2)CC1=O)NC1CCCCCC1 | 721 s
Cc1[nH]c(C(=O)N2CCCC(C(=O)NC3CCCCCC3)C2)c(C)c1C(=O)OC(C)C (centres undefined) | 944 s
Cc1sc(NC(=O)c2ccc(S(=O)(=O)N(C)C)cc2)nc1-c1ccc2c(c1)N(C)C(=O)CO2 | 938 s
CCNc1nc(C)cc(N2CCN(S(=O)(=O)c3ccc(Cl)cc3)CC2)n1 | 735 s
Cc1cc(C(=O)NCc2cc(F)cc(F)c2)nc2cc(-c3cccs3)nn12 | 1120 s
CCOC(=O)c1cc(C)nc2c1c(=O)n(Cc1ccccc1F)c(=O)n2C | 1070 s
CCCCOc1ccc(-c2csc(Nc3ccccc3)n2)cc1 | 1400 s
Cc1nc(-c2csc(S(=O)(=O)N3CCCC(C(=O)N(C)Cc4ccccc4)C3)c2)no1 (centres undefined) | 939 s
O=C(Nc1ccccc1)N1CC(c2nc(CCOCC3CCCC3)no2)C1 | 944 s
CC(C)C(=O)Nc1ccc(C2(C(=O)N3CCN(C(C)C)CC3)CCCCC2)cc1 | 652 s
CCN(CC)CCNC(=O)Cc1c(C)nc2c(-c3ccc(F)cc3)c(C)nn2c1C | 661 s
CN1CCCC1c1nc(C2CN(C(=O)c3cccn3C)C2)no1 (centres undefined) | 548 s
c1cc2c(cc1-c1noc(C3CCC3)n1)nnn2CCN1CCCCC1 | 654 s
CCN1CCN(c2ccc(NC(=O)c3cc(Cl)ccc3F)cn2)C1=O | 747 s
CC(C)C(=O)N1CCOc2ccc(N(C)C)cc2C1 | 575 s
CCOC(=O)c1nc(NC2CCN(Cc3ccccc3)CC2)c2ccccc2n1 | 607 s
Cc1cc(C)n2nc(SCC(=O)Nc3ccc(Br)cc3F)nc2n1 | 850 s
CCCNC(=O)c1ccccc1OCc1nc(-c2ccccc2)no1 | 954 s
COc1cc(OC)c2c(C)c(CC(=O)N3CCC(C(N)=O)CC3)c(=O)oc2c1 | 649 s
Cc1ccc(-c2nc(-c3ccc(S(=O)(=O)N4CCCC4)cc3)no2)cc1F | 1260 s

Compound | RP-LC retention time
CCOC(=O)C(C)Oc1ccc2c(=O)c(Oc3ccccc3OCC)coc2c1 (centres undefined) | 971 s
CCn1c(=O)c2c(cc(C)n2C)n(CC(=O)Nc2cc(OC)cc(OC)c2)c1=O | 779 s
CC(C)COc1cc(=O)n2c(c1C(=O)NCC1CCCCC1)CCCCC2 | 864 s
COc1ccc(C(=O)NC2CCN(c3cc(-c4cccs4)[nH]n3)C2)c(OC)c1 (centres undefined) | 724 s
Cc1ccc(-c2coc(-c3ccc(NC(=O)CC(C)C)cc3)n2)c(C)c1 | 1240 s
O=C(CCC1CCN(c2cc(NC3CC3)ncn2)CC1)NCc1cccnc1 | 548 s
CCCn1c(=O)c2cc(C(=O)NCCCc3ccccc3)nn2c2ccccc21 | 1060 s
COc1cccc(OC)c1C(=O)Nc1cc2c(cc1S(=O)(=O)c1ccc(F)cc1)n(C)c(=O)n2C | 852 s
CCCC(O)c1nc2ccccc2n1CC(=O)N(c1ccccc1)C(C)C (centres undefined) | 734 s
Cc1ccc(-n2c(N3CCCC(C(=O)NCCN4CCCCC4)C3)nc3ccsc3c2=O)cc1 (centres undefined) | 617 s
COCCNC(=O)C1CCCN(c2cnc3nc(C)c(C)nc3c2)C1 (centres undefined) | 602 s
Cc1cccc(CNC(=O)CN2CCN(Cc3cccc(Cl)c3)C2=O)c1 | 847 s
COc1ccc(-c2nc3ccc(C)cn3c2Nc2ccc3c(c2)OCO3)cc1 | 684 s
O=C(Nc1ccc(S(=O)(=O)N2CC3CC(C2)c2cccc(=O)n2C3)cc1)C1CC1 (centres undefined) | 631 s
Cc1ccc(-n2nnnc2CNC(=O)Nc2ccc3c(c2)OCO3)cc1C | 734 s
Cc1nn2cnnc2c(C)c1CCC(=O)NCCN(C)Cc1ccccc1 | 571 s
O=C(NCc1csc(-c2ccccc2)n1)C1CCN(S(=O)(=O)c2ccc(F)cc2)CC1 | 910 s
CC1CN(C2CCCCC2)c2nc3c(c(=O)n(CC(=O)O)c(=O)n3C)n2C1 (centres undefined) | 773 s
O=C(NCc1ccc(F)cc1)C1CCCN(c2nccnc2Sc2ccccc2)C1 (centres undefined) | 1020 s
Cn1nc(C(=O)N2CCOCC2)c2c1CCN(C(=O)Nc1ccc(F)cc1F)C2 | 653 s
COC(=O)c1ccc2c(=O)n(-c3ccc(OC)c(OC)c3)c(N3CCCC3)nc2c1 | 751 s
CC(C)CC(C(=O)Nc1cccc(O)c1)N1C(=O)c2ccccc2C1=O (centres undefined) | 823 s
Cc1c(Cl)cccc1Nc1c(-c2ccc3c(c2)OCO3)nc2cnccn12 | 975 s

Compound | RP-LC retention time
O=C(CN1C(=O)CCc2cc(Br)ccc21)NCc1cccnc1 | 614 s
CCOC(=O)CNC(=O)N1CCCC1c1ccc(F)cc1 (centres undefined) | 760 s
CC(C)c1ccc(NC(=O)C(=O)NCCCN2CCN(c3ccccc3)CC2)cc1 | 631 s
CCS(=O)(=O)NCc1cccnc1Oc1ccccc1 | 788 s
Cc1ccc(S(=O)(=O)N2CCC3(CC2)NCCN=C3NCc2cccc(F)c2)cc1C | 745 s
Cc1ccc(C)c(NC(=O)C2CCN(C(=O)c3ncn4c3COC(c3ccc(F)cc3)C4)CC2)c1 (centres undefined) | 809 s
Cc1ccc(C)c(N2CCN(C(=O)c3ccc(C)c(NC(=O)C4=CSCCO4)c3)CC2)c1 | 1070 s
CC(C)Cc1cc(-c2nn3c(Cc4ccc(Cl)cc4)nnc3s2)n[nH]1 | 1010 s
O=C(c1ccc2cc[nH]c2c1)N1CCC2(CC1)N=C(c1ccc(Cl)cc1)NO2 | 841 s
CC1=C(c2ccccc2)S(=O)(=O)N=C1N1CCCN(C(=O)c2ccccc2F)CC1 | 802 s
CC(C)OCCCN1C(=O)CN(C2CCCCC2)C(=O)C1c1cccs1 (centres undefined) | 991 s
CCOc1ccc(CNS(=O)(=O)c2ccc3c(c2)CCCC(=O)N3)cc1 | 744 s
FC1(c2nc(-c3ccccc3)no2)CCN(C2CCOCC2)CC1 | 636 s
O=C(Nc1cccn2c(C3CCC3)nnc12)c1ccc2c(c1)OCO2 | 744 s
COc1ccc(N2CC(c3noc(-c4ccc5c(c4)OCO5)n3)CC2=O)cc1OC (centres undefined) | 770 s
CC(C)N1C(=O)c2cccnc2Sc2cc(NC(=O)COc3ccc(F)cc3)ccc21 | 894 s
Cc1nc(CCNC(=O)C2CCN(S(=O)(=O)c3ccccc3C(F)(F)F)CC2)cs1 | 753 s
CCCc1nc(-c2c(C)cc(C)nc2NC(=O)c2ccc(F)cc2Cl)no1 | 937 s
CCCC(NCc1ccc2c(c1)n(C)c(=O)n2C)c1ccccc1 (centres undefined) | 635 s
Cc1ccc(-c2nc3ccccn3c2NC(=O)NCc2ccc(F)cc2)cc1 | 681 s
Cc1sc(-c2nc(C(C)C)cs2)cc1S(=O)(=O)NCc1ccccc1 | 1190 s
Nc1nnc(SCC(=O)Nc2nc(-c3ccccc3)cs2)s1 | 751 s
Cc1nc2ncnn2c(C)c1CCC(=O)N1CCC(Cc2ccccc2)CC1 | 815 s

Compound | RP-LC retention time
Cc1noc(-c2cc(S(=O)(=O)N3CCC(C)CC3)c(C)s2)c1C | 1160 s
O=C(CCN1C(=O)C2C3C=CC(C3)C2C1=O)N1CCN(c2ccccn2)CC1 (centres undefined) | 572 s
CCCCOc1ccc(C(=O)Nc2ccc(-c3nc(C)no3)cc2)cc1 | 1070 s
CCN1CCN(CCNC(=O)c2ccc(-c3ccc4c(c3)CCN4C(C)=O)cc2)CC1 | 598 s
O=S(=O)(c1cccc(Cl)c1)N1CCc2nc(-c3ccc(F)cc3)ncc2C1 | 1180 s
Cc1ccccc1-c1noc(Cn2ccnc2C)n1 | 622 s
COc1cc(OC)cc(-c2nc(C3CC(=O)N(c4ccc(F)c(Cl)c4)C3)no2)c1 (centres undefined) | 1110 s
COc1ccc(CNC(=O)c2c(O)c3cccnc3[nH]c2=O)cc1 | 892 s
CCN1C(=O)C(C(=O)Nc2cccc(C)c2)C2CC1(C)Oc1ccccc12 (centres undefined) | 1060 s
CC1=NS(=O)(=O)N(C)C=C1C(=O)OCc1noc(-c2ccccc2Cl)n1 | 975 s
Cc1ccc2c(=O)c3c([nH]c2c1C)CCN(CC(=O)Nc1ccc(Cl)c(F)c1)C3 | 662 s
Cn1ncn2cc(S(=O)(=O)NCc3ccc(Cl)cc3)cc2c1=O | 817 s
CCCN1CCN(c2cc(C(=O)O)c3cc(NS(=O)(=O)c4cc(C)c(C)cc4C)ccc3n2)CC1 | 653 s
CCOc1cc(S(=O)(=O)Nc2cccc(C)n2)c(C)cc1C | 779 s
CCN(CC)CCCNC(=O)c1nnc(-c2ccc(S(=O)(=O)N3CCC(C)CC3)cc2)o1 | 696 s
COC(=O)c1cn(CC(=O)NCc2ccc3c(c2)OCCCO3)c2ccccc12 | 852 s
Cc1csc(-c2cc(S(=O)(=O)NCCc3cccs3)c(C)n2C)n1 | 973 s
Cc1ccc(C)c(-c2nc(-c3ccc4c(c3)oc(=O)n4C(C)C)no2)c1 | 1190 s
CCc1cc(N2CCN(C(=O)c3cc(OC)c(OC)c(OC)c3)CC2)nc2nncn12 | 593 s
O=C(Nc1ccc(N2CCN(C3CCCC3)C2=O)nc1)c1ccc(Cl)cc1 | 937 s
